According to patent US8003631B2, “Composition and method for the treatment of tauopathies” (Tautatis, Inc., priority 2004, dated 2011):

Columns and labels:
[1] = tested on: PHF-type tau hyperphosphorylation; experiment: Titration of tau hyperphosphorylation inhibitors in okadaic acid-stimulated rat hippocampal brain slice model; type: cell-based; details: okadaic acid provocation of PHF-markers
Description: Authentic PHF-type phosphorylation events virtually indistinguishable by all known molecular markers from what is seen in PHF-tau from human Alzheimer's disease brains is rapidly provoked in such brain slices by application of the phosphatase inhibitor okadaic acid (OA) [Gong et al., Brain Res. Brain Res. Protoc., 6, 134-140 (2001); WO 01/57535; WO 00/01699].
In okadaic acid-treated brain slices, most of the above pathological markers are modeled. For the detection of active inhibitor compounds, freshly prepared metabolically-active isolated slices, kept under constant oxygenation in a physiological buffer (artificial cerebrospinal fluid or Krebs-Ringer solution), are preincubated with a range of concentration of the compounds of general formula 1. The slices are then extracted with buffers stopping both kinase as well as phosphatase activities, and soluble supernatants of such tissue homogenates are then separated by SDS-PAGE and subjected to Western-blotting. […] The intensity of the signals can then be normalized to the amount of total tau in the sample by probing a sister blot with a phosphorylation insensitive tau antibody, followed by forming the intensity ratio of the respective phosphoepitope over total tau immunoreactivity which represent an accurate quantitative measure of the degree of phosphorylation defining a particular epitope. […]

[2] = cited from earlier work

Row | Compound | activity in the brain slice hyperphosphorylation model [1] | brain/plasma ratio ([2]; concentration in brain over concentration in plasma at a given time point) | maximal oral bioavailability ([2]; rats, oral) [%]
1 | CN[C@@H]1C[C@H]2O[C@@](C)([C@@H]1OC)n1c3ccccc3c3c4c(c5c6ccccc6n2c5c31)C(=O)NC4 [staurosporine] | inactive |  | 
2 | COC(=O)[C@@]1(O)C[C@H]2O[C@]1(C)n1c3ccccc3c3c4c(c5c6ccccc6n2c5c31)C(=O)NC4 [K252a] |  | below 1 | 13
3 | CCSCc1ccc2c(c1)c1c3c(c4c5cc(CSCC)ccc5n5c4c1n2[C@H]1C[C@](O)(C(=O)OC)[C@]5(C)O1)CNC3=O [CEP-1347] | inactive |  | 
